{"source": "patent US8455523B2", "about": "“Compositions and methods for treating hyperlipidemias” (The Research Foundation of State University of New York, priority 2010, dated 2013)", "key": {"[1]": {"test_system": "hepatic mRNA of ER stress, inflammation and lipid metabolism genes", "assay": "Hepatic mRNA quantification (qPCR, XBP-1 splicing) in treated mice", "format": "in vivo", "settings": "liver; for Bip, Ire1α, CHOP, PERK and ATF6 mRNA levels: BMS MTPi one week, lovastatin or pioglitazone with MTPi", "text": "FIGS. 6a and 6b. Liver samples from FIG. 16 were used to isolate total mRNA and to quantify expression of different candidate genes. Statistical analyses were as described in FIGS. 16-17.\nFIGS. 9a and 9b. C57B/6J mice were fed a western diet for 8 weeks and then treated with MTP inhibitor and other indicated compounds for 8 days as described in FIG. 16. Liver samples were used to isolate mRNA and to quantify mRNA levels with different candidate genes. Stars on MTPi group represent comparison with the control group.\nFIG. 16. Age matched wildtype C57/BL6J animals chow fed animals were treated with DMSO (control) or MTP inhibitor (MTPi) for one week. Age matched wildtype C57/BL6J were fed WD for one month and were administered MTPi, Lovastatin, (Lova), Pioglitazone (Pio) or 4-phenylbutyric acid (PBA) every day for one week. All drugs were administered by oral gavage. Animals were sacrificed on day 7 and livers were harvested. mRNA was extracted and subjected to qPCR analysis. * represent comparison DMSO control; # represent comparisons to WD control; @ represent comparisons to WD MTP inhibitor treated animals.\nmRNA quantifications and primers used: Total RNA from tissues and cells were isolated using TriZol™ (Invitrogen). The purity and integrity of RNA were assessed by the A260/A280 ratio and 1% agarose gel electrophoresis, respectively. Only the RNAs with ratios more than 1.7 were used for cDNA synthesis. The first strand cDNA was synthesized using Omniscript RT (Qiagen) kit. Briefly, 2 μg of total RNA, 1 μM random primers (Invitrogen), 0.5 mM dNTP solution, and 0.5 U/μl Omniscript Reverse Transcriptase were incubated at 37° C. for 1 h in 20 μl of RT buffer and the reaction was terminated by incubating at 95° C. for 5 minutes. Each reaction of quantitative RT-PCR was carried out in a volume of 20 μl consisting of 5 μl cDNA sample (1:100 dilution of the first strand cDNA sample) and 15 μl of PCR master mix solution containing 1×PCR reaction buffer, 6 mM MgCl2, 200 nM primer pair, 0.025 U/μl HotStar Gold™ DNA polymerase, 200 μM dNTP solution, and 0.3 μl SYBR Green I solution (gPCR™ Core Kit for SYBR Green I, Eurogentec). The PCR was carried out by incubating the reaction mixture first for 10 minute at 95° C. followed by 40 cycles of 15 sec incubations at 95° C. and 1 min at 60° C. in the ABI 7000 SDS PCR machine. The data were analyzed using ΔΔCT method according to manufacturer's instruction and presented as arbitrary units. The primers used in this study were designed with the PrimerExpress 3.0 software (Applied Biosystems, CA) and are presented as Table 1."}, "MTP": {"target": "T1, MTP (Mus musculus, UniProt O08601)", "T1 construct": "small pieces (0.1 g) of liver and ˜1-cm segments of proximal small intestine were homogenized; from tissue; host or cells: mouse liver (C57BL/6J; Reversa mice in some experiments); supernatant of ultracentrifuged homogenate", "T1 sequence (O08601 22-894)": "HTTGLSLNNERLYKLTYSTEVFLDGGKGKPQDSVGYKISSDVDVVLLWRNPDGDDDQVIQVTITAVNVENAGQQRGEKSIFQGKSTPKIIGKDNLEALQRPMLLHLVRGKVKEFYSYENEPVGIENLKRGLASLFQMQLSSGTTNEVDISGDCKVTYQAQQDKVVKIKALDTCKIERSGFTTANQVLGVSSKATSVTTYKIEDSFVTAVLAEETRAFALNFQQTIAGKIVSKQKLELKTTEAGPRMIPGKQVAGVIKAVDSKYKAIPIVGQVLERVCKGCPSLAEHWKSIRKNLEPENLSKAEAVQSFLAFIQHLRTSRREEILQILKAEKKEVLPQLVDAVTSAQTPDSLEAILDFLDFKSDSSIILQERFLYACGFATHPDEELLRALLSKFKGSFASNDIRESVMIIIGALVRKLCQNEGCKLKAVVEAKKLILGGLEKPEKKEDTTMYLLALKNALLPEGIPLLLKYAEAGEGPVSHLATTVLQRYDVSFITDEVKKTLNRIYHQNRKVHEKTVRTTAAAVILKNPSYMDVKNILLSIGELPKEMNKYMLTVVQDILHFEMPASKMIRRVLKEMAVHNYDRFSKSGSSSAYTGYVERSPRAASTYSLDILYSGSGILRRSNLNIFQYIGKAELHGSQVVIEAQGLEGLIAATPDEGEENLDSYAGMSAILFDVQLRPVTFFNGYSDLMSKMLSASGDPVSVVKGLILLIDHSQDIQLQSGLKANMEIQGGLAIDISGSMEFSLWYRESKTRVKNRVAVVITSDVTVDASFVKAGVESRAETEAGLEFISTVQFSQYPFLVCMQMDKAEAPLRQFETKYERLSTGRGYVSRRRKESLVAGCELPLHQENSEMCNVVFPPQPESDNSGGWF", "T1 sequence (P09103 21-509 partner limits assumed)": "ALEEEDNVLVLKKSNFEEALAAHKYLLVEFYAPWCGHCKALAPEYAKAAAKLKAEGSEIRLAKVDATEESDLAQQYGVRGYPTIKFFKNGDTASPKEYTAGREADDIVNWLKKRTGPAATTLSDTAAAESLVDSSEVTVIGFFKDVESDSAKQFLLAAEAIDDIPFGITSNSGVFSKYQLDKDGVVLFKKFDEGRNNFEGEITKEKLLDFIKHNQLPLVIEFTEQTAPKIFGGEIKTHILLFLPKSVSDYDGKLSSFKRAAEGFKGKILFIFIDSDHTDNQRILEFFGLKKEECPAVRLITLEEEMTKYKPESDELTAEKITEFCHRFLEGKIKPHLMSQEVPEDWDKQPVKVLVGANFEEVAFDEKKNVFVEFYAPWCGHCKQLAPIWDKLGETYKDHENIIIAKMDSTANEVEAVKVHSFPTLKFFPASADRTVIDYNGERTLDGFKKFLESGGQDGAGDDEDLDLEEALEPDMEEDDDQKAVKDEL", "assay": "Determination of MTP activity in tissues (liver homogenates of treated mice)", "format": "in vivo", "settings": "for MTP activity (liver): C57Bl/6J, MTPi 1 mg/kg/day oral one week, lovastatin 50 or pioglitazone 25 mg/kg/day added to MTPi; for MTP specific activity (liver): WD fed C57Bl/6J, drug alone, one week", "experimental": "After extensive washes with ice-cold PBS, small pieces (0.1 g) of liver and ˜1-cm segments of proximal small intestine were homogenized with 1 ml of ice-cold 1 mM Tris-HCl, pH 7.6, 1 mM EGTA, and 1 mM MgCl2 buffer in a glass homogenizer. The homogenates were centrifuged (SW55 Ti rotor, 50,000 rpm, 10° C., 1 h), and supernatants were used for MTP assay as described before (41; 42) using a kit (Chylos, Inc.)."}, "[2]": {"settings": "WD 8 weeks, CP-346086 1 week ± lovastatin or WY14643"}, "[3]": {"settings": "WD five weeks, treatment in last week, MTPi ± pioglitazone or lovastatin"}}}
{"smiles": "CC[C@H](C)C(=O)O[C@H]1C[C@@H](C)C=C2C=C[C@H](C)[C@H](CC[C@@H]3C[C@@H](O)CC(=O)O3)[C@H]21", "note": "[lovastatin]", "values": [{"measurement": "Bip, Ire1α, CHOP, PERK and ATF6 mRNA levels", "setting": "[1]", "value": "significantly lower"}, {"measurement": "MTP activity (liver)", "setting": "MTP", "value": "not further affected"}, {"measurement": "hepatic MTP activity", "setting": "MTP; [2]", "value": "no further effect"}, {"measurement": "MTP specific activity (liver)", "setting": "MTP", "value": "no effect"}, {"measurement": "hepatic MTP activity", "setting": "MTP; [3]", "value": "unaffected"}]}
{"smiles": "Cc1cccc(Nc2cc(Cl)nc(SCC(=O)O)n2)c1C", "note": "[WY14643]", "values": [{"measurement": "Ire1α mRNA and spliced form of XBP-1", "setting": "[1]; WD 8 weeks, CP-346086 ± lovastatin or WY14643, 8 days", "value": "no effect"}, {"measurement": "hepatic MTP activity", "setting": "MTP; [2]", "value": "no further effect"}]}
{"smiles": "CCc1ccc(CCOc2ccc(CC3SC(=O)NC3=O)cc2)nc1", "note": "(racemic) [pioglitazone, (RS)-5-(4-[2-(5-ethylpyridin-2-yl)ethoxy]benzyl)thiazolidine-2,4-dione]", "values": [{"measurement": "Bip, Ire1α, CHOP, PERK and ATF6 mRNA levels", "setting": "[1]", "value": "significantly lower"}, {"measurement": "MTP activity (liver)", "setting": "MTP", "value": "not further affected"}, {"measurement": "MTP specific activity (liver)", "setting": "MTP", "value": "no effect"}, {"measurement": "hepatic MTP activity", "setting": "MTP; [3]", "value": "unaffected"}]}
